Measured values reported in ChEMBL document CHEMBL1201862, “PubChem BioAssay data set” (2004).
Calls of active or inactive are those of the source.

Experiments:
[1] = system: INS1; test: suppression of NO production in INS-1E cells – cell-based, Griess absorbance, dry powder, set 2, dose response (AID 488868); format: functional; settings: Rattus norvegicus
[2] = suppression of NO production in INS-1E cells – cell-based, Griess absorbance, dry powder, set 3, dose response (AID 488870); format: functional; settings: Rattus norvegicus
[3] = system: INS1; test: beta-cell survival under cytokine stress – INS-1E, ATP luminescence, dry powder, dose response (AID 488844); format: functional, cell-based; settings: Rattus norvegicus
[4] = biological target: T1, Sentrin-specific protease 8 (Homo sapiens, UniProt Q96LD8); test: inhibition of human SENP8 cleavage activity – biochemical, luminescence, SAR follow-up (AID 504501); format: functional
T1 sequence (Q96LD8 whole entry): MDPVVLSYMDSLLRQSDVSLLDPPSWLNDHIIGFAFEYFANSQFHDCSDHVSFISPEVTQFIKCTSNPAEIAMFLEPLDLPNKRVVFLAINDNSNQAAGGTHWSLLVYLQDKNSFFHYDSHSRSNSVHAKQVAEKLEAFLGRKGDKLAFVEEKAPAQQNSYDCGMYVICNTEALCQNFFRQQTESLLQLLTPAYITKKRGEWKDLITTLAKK

[5] = biological target: T2, Sentrin-specific protease 6 (Homo sapiens, UniProt Q9GZR1); test: SAR Analysis of small molecule inhibitors of Sentrin-specific protease 6 (SENP6) using a Luminescent assay. [Related pubchem assays (depositor defined):AID2582, AID2599]; format: functional
T2 sequence (Q9GZR1 whole entry): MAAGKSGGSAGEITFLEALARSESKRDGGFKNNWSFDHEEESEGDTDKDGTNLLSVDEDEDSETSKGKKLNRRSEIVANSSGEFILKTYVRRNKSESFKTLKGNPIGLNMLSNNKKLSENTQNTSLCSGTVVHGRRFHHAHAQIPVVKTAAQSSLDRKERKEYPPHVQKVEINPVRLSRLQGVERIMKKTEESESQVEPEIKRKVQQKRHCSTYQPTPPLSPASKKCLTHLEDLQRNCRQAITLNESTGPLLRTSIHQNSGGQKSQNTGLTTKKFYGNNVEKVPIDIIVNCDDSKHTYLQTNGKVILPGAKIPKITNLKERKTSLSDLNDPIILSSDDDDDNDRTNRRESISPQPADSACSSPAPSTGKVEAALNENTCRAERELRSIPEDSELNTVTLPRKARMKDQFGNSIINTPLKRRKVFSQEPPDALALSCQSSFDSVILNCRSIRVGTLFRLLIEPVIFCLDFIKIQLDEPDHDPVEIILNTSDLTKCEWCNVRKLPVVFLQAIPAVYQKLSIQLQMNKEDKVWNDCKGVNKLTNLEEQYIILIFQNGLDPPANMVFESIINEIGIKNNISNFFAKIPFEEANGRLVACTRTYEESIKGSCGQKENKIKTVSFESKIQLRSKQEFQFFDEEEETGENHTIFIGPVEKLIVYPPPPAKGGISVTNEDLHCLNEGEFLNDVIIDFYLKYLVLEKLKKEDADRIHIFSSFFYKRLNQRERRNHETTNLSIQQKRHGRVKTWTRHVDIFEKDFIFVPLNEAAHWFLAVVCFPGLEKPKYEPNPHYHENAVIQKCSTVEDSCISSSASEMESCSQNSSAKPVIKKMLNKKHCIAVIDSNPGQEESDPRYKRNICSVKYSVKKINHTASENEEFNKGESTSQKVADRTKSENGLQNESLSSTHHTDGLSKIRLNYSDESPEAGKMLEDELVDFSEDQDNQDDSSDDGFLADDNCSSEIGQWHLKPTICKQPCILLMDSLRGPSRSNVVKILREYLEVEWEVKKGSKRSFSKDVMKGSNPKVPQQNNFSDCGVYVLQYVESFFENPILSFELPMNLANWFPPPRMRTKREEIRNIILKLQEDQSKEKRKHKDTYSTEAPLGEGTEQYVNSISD

[6] = biological target: T3, Sentrin-specific protease 7 (Homo sapiens, UniProt Q9BQF6); test: inhibition of human SENP7 cleavage activity – biochemical, luminescence, SAR follow-up (AID 504497); format: functional
T3 sequence (Q9BQF6 whole entry): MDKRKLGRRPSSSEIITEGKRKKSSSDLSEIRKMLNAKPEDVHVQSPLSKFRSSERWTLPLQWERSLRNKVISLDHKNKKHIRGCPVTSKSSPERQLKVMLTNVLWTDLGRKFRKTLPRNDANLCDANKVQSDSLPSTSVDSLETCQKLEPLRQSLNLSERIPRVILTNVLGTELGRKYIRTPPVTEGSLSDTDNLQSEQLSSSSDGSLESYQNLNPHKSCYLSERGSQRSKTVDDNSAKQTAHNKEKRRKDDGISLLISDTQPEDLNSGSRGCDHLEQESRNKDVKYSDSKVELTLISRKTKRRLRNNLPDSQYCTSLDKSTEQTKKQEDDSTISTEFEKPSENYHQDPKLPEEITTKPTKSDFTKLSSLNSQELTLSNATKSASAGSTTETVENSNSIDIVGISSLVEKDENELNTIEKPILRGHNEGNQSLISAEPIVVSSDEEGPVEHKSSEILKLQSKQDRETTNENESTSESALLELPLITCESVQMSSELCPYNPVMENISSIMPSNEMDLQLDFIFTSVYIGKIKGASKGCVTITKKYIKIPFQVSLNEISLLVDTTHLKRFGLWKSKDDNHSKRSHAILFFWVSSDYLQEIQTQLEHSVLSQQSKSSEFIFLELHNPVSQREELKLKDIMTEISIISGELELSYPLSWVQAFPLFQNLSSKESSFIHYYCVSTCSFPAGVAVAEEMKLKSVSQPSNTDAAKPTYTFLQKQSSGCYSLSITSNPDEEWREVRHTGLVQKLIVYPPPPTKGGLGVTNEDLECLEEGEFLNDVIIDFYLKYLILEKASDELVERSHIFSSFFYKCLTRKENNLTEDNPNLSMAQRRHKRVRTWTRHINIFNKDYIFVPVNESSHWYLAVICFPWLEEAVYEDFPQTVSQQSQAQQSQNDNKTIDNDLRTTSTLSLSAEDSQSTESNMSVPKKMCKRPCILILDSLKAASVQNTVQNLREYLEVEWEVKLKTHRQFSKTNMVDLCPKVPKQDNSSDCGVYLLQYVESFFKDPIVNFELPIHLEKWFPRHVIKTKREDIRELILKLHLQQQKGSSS

[7] = biological target: T4, Caspase-3 (Homo sapiens, UniProt P42574); test: SAR Analysis of small molecule inhibitors of Sentrin-specific proteases (SENPs) using a Caspase-3 Selectivity assay. [Related pubchem assays (depositor defined):AID2540, AID2599, AID434973, AID489001]; format: functional
T4 sequence (P42574 whole entry): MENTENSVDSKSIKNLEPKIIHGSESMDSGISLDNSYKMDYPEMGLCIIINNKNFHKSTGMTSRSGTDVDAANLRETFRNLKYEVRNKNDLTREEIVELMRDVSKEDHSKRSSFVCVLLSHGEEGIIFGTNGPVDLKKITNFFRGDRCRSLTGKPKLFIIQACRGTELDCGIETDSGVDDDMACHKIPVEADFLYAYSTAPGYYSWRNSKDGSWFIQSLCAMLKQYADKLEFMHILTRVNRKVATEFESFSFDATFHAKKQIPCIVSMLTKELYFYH

[8] = biological target: T4, Caspase-3; test: inhibition of recombinant caspase-3 activity – biochemical, luminescence, set 2, selectivity assay for SENP protease inhibitor project, SAR follow-up (AID 588599); format: functional
[9] = biological target: T1, Sentrin-specific protease 8; test: inhibition of sentrin protease 8 – biochemical, luminescence, set 2, SAR follow-up (AID 588601); format: functional
[10] = biological target: T2, Sentrin-specific protease 6; test: inhibition of human SENP6 catalytic domain – biochemical, luminescence, set 2, SAR follow-up (AID 588598); format: functional
[11] = biological target: T3, Sentrin-specific protease 7; test: inhibition of human SENP7 cleavage activity – biochemical, luminescence, set 2, SAR follow-up (AID 588600); format: functional
[12] = Trypanosoma cruzi growth suppression in host cells – NIH3T3 host cells, beta-gal luminescence, confirmation (AID 2044); format: functional, cell-based;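 further: intracellular parasites grown in NIH/3T3 mouse fibroblasts as host cells; luminescent beta-galactosidase reporter signal from transgenic T. cruzi replicating inside host cells; inhibitors lower the luminescence signal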
[13] = NIH3T3 cell viability loss – ATP luminescence, mouse fibroblasts, counter-screen, dose response (AID 2010); format: functional, cell-based;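 further: cells exposed to compound for about 90 hours before reading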
[14] = system: HEK293; test: EBV LMP1 TES2 canonical NF-kB signalling blockers – cell-based, HEK293, luciferase, cherry-pick, dose response (AID 588343); format: functional; settings: Homo sapiens
[15] = biological target: Latent membrane protein 1 (Human herpesvirus 4 (strain B95-8), UniProt P03230); test: LMP1 TES1 pathway selectivity over dsRED control – imaging, HEK293T, dual-color eGFP/dsRED, cherry-picks, selectivity assay for LMP1 NF-kB inhibitor project, dose response (AID 588398); format: functional, cell-based
Sequence of Latent membrane protein 1 (P03230 whole entry): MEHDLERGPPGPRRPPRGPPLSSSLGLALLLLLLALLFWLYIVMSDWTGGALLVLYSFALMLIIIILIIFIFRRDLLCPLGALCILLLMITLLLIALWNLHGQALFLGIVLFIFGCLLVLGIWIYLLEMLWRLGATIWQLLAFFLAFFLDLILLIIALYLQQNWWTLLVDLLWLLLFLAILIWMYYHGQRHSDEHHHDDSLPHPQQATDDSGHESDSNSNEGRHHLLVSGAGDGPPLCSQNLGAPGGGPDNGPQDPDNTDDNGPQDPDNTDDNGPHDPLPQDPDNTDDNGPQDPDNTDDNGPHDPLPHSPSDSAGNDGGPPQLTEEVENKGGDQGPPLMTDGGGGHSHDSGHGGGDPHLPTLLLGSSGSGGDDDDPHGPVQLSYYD

[16] = system: INS1; test: INS-1E survival protection against cytokine death – cell-based, luminescence, retest, dose response (AID 449756); format: functional; settings: Rattus norvegicus;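 further: cell death triggered by IL-1 beta plus TNF-alpha plus IFN-gamma mixture; protective hits raise ATP signal compared with cytokine alone wells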
[17] = microbe, parasite or virus in culture; format: functional; settings: Mycobacterium tuberculosis
[18] = system: HEK293; test: membrane integrity loss in HEK cells – cell-based, fluorescence, cytotoxicity control for IDE activator project, dose response (AID 588440); format: functional; settings: Homo sapiens;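 further: cytotoxicity by LDH release measuring loss of membrane integrity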
[19] = biological target: T5, Mannose-6-phosphate isomerase (Homo sapiens, UniProt P34949); test: MPI inhibition at elevated mannose 6-phosphate – biochemical, fluorescence intensity, high mannose 6-phosphate, primary screen (AID 1220)
T5 sequence (P34949 whole entry): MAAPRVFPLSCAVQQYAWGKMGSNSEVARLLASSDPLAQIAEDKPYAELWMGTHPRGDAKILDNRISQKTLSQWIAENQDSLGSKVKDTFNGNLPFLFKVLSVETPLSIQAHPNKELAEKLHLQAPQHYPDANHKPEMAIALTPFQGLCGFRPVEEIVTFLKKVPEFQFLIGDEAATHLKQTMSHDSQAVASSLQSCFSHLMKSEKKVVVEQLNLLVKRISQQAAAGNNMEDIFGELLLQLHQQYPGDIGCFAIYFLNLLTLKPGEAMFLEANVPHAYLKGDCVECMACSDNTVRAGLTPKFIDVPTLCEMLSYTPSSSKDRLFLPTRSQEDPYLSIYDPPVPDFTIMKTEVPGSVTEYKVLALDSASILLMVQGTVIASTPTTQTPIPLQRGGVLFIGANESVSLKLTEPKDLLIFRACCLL

[20] = biological target: T6, Insulin-degrading enzyme (Homo sapiens, UniProt P14735); test: recombinant IDE activation, cell-free – biochemical, fluorescence polarization, counter-screen for IDE activator project, dose response (AID 588681)
T6 sequence (P14735 whole entry): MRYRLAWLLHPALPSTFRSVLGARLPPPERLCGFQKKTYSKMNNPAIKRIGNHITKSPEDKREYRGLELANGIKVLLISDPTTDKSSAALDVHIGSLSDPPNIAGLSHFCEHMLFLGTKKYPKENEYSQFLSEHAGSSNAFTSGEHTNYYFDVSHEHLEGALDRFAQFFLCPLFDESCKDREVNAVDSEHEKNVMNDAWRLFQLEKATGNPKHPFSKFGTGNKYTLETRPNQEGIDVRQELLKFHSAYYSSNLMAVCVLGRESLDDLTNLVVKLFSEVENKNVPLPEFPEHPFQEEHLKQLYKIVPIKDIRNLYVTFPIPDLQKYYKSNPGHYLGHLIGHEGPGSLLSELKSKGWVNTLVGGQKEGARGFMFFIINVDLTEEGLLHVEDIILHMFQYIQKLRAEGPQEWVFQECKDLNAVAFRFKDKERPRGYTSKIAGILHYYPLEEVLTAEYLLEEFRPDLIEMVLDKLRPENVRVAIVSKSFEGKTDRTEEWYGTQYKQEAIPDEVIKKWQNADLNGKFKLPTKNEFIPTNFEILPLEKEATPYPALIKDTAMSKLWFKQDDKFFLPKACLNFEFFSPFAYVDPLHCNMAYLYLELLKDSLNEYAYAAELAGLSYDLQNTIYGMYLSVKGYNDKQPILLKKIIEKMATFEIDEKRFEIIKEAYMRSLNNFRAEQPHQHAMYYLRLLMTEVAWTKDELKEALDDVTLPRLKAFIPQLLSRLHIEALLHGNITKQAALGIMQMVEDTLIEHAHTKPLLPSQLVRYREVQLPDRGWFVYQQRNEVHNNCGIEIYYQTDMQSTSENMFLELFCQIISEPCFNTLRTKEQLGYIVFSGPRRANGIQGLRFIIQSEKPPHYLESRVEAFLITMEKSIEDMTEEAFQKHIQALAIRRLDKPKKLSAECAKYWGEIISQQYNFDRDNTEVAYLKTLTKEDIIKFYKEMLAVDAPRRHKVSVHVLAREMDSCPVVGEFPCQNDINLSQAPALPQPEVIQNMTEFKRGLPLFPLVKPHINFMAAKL

[21] = system: HEK293; test: optical interference in Abeta FP readout, dose response, artefact control for IDE activator project, biochemical, fluorescence polarization (AID 588442); format: functional, cell-based; settings: Homo sapiens
[22] = biological target: T6, Insulin-degrading enzyme; test: cellular IDE activation of Abeta substrate cleavage – fluorescence polarization, HEK cells, dose response (AID 588439); format: functional, cell-based

Compound: C[C@@H]1CN([C@H](C)CO)C(=O)c2cccc(NC(=O)Nc3cccc4ccccc34)c2O[C@H]1CN(C)S(=O)(=O)c1ccc(Cl)cc1
- AC50 [1]: 48.5 µM (active)
- AC50 [2]: 112 µM (active)
- AC50 [3]: 187 µM (active)

Compound: COc1cc(Cc2nccc3cc(OC)c(OC)cc23)c(C(=O)c2ccccc2)cc1OC
- IC50 [4]: > 99 µM (inactive)
- IC50 [5]: 50.9 µM (active)
- IC50 [6]: > 99 µM (inactive)
- IC50 [7]: 71.6 µM (active)

Compound: Cc1ccc(S(=O)(=O)NCCC(=O)N/N=C\c2c[nH]c3ccccc23)cc1
- IC50 [8]: > 99 µM (inactive)
- IC50 [9]: > 99 µM (inactive)
- IC50 [10]: > 99 µM (inactive)
- IC50 [11]: > 99 µM (inactive)

Compound: Clc1ccc(SCc2cc(N3CCOCC3)nc(-c3ccccn3)n2)cc1
- EC50 [12]: 1.51 µM (active)
- EC50 [13]: > 60 µM (not active)
- AC50 [14]: 12.1 µM (active)
- AC50 [15]: 10.5 µM (active)
- AC50 [16]: 2.57 µM (active)
- CC50 [17]: 19.5 µM (active)

Compound: O=c1oc2cc(O)ccc2cc1-c1nc2c(s1)CCc1ccccc1-2
- IC50 [18]: > 89.2 µM (inactive)
- IC50 [19]: > 50 µM (not active)
- EC50 [20]: > 54.7 µM (inactive)
- EC50 [21]: 4.6 µM (active)
- EC50 [22]: > 54.7 µM (inactive)
